In US20210244791A1, “APPLICATION OF PEDF-DERIVED SHORT PEPTIDES IN TENDON HEALING” (BRIM Biotechnology, Inc., priority 2018, published 2021):

Test system: injured Achilles tendon
Assay: Rat model of Achilles tendon injury, histology (H&E) and histopathological score
Type: in vivo
Conditions: 1 week postoperative
Excerpt: Representative micrographs of the histopathological analysis by H&E staining. H&E-stained sections in higher magnification show uninjured tendon tissue with a relative scarcity of cells among the collagen fibers.
(A) Representative H&E-stained longitudinal sections in higher magnification show the nuclei morphologies in uninjured tendon tissue and injured tendon treated with vehicle/alginate and 29-mer/alginate for 1 week. (B) Histopathological scores. Total scores were determining by fiber structure, fiber arrangement, rounding of the nuclei, resident cell density and inflammation (infiltration of inflammatory cells, neovascularization and fatty deposits). Data are reported as mean±SE. *P<0.0005 versus vehicle/alginate-treated tendon; ^#P<0.05 versus 29-mer/alginate-treated tendon.
To investigate the effects of the 29-mer peptide on tendon healing, a rat model of Achilles tendon injury was established as reported by Orhan et al. (The effect of extracorporeal shock waves on a rat model of injury to tendon Achilles. A histological and biomechanical study. J. Bone Joint Surg. Br. 2004;.86(4):.613-618). Adult 10-week-old male Sprague-Dawley rats (initial body weight=312±11 g) were anesthetized by an intraperitoneal injection of xylazine (10 mg/kg). Then, the left tendo Achilles injury was created by full-thickness insertion of an 18-G needle through tendo Achilles 1 cm proximal to the calcaneum attachment site. This created a horizontal wound that was flanked by intact tendon tissue to prevent the retraction of severed ends. The skin incision was closed after the wound was irrigated with sterile saline. Treatments were applied to area around the tendon lesion by subcutaneous injection with 150 μl of alginate gel mixed with 100 μM 29-mer or DMSO vehicle (six rats per experimental condition).
The tendon and surrounding soft tissue were dissected. Specimens were fixed in a 4% paraformaldehyde (PFA) solution and then were embedded in paraffin blocks. Sections (5 μm in thickness) were longitudinally cut and stained with hematoxylin and eosin (H&E) or used for immunohistochemical examination. 36 sections per tendon were carefully prepared so as to include the most severely degenerated area. Images were captured using a Nikon Eclipse 80i microscope (Nikon Corporation, Tokyo, Japan) equipped with a Leica DC 500 camera (Leica Microsystems, Wetzlar, Germany). Four sections of each sample containing injured tendon tissues were selected and evaluated by two blinded observers to assess the tendon morphology according to a modified semi-quantitative grading score from 0 to 3 proposed by Chen et al. (Tendon derived stem cells promote platelet-rich plasma healing in collagenase-induced rat Achilles tendinopathy. Cell Physiol. Biochem., 2014; 34(6): 2153-68). The scores analyzed the fiber structure (0-3), fiber arrangement (0-3), rounding of the nuclei (0-3), resident cell density (0-3), and inflammation (0-3; infiltration of inflammatory cells, neovascularization and fatty deposits). According to this grading system, a perfectly normal tendon obtained a score of 0, whereas a score of 15 was assigned to maximally abnormal tendons.
To investigate the therapeutic effect of the 29-mer peptide on injured tendon, a rat model of Achilles tendon injury was established by full-thickness insertion of an 18-G needle through the tendon Achilles. We delivered the 29-mer in a 150 μl alginate gel, which releases 90% loaded 29-mer in 5 days as described in a previous protocol (Ho et al., PEDF-derived peptide promotes skeletal muscle regeneration through its mitogenic effect on muscle progenitor cells. Am J Physiol. Cell Physiol. 2015 Aug. 1; 309(3): C159-68).

## SLGAEQRTESIIHRALYYDLISSPDIHGT (listed as Homo sapiens) [29-mer, PEDF-derived short peptide, human PEDF residues 93-121]
peptide/alginate gel, 0 = normal tendon, 15 = maximally abnormal, vehicle/alginate 12.7±0.6
  total histopathological score: 7.9±0.4
Subcutaneous 150 μl alginate gel with 100 μM peptide
  histological appearance of treated tendon (H&E staining): uniform appearance of well-aligned collagen fibers
